# From US20060167083A1, “Therapeutic methods and compositions involving isoflav-3-ene and isoflavan structures” (priority 2002, published 2006)
# How the values were obtained:
# Type in all cases: biochemical
# human topo II = biological target: T1, human topo II (Homo sapiens, UniProt P11388); assay: Topo II-mediated plasmid linearisation assay
# T1 construct: purchased Topogen (Columbus, Ohio)
# Experimental: FIG. 3 represents an assay for determining the effect of dehydroequol on double-stranded DNA cleavage. pRYG DNA was incubated with ten units of human topo II (lanes 2-6) in the absence (lane 1) or presence of 10, 30, or 100 μg/ml dehydroequol (lanes 2-4), or 30 μg/ml genistein (lane 5), or 10 μg/ml VP-16 (lane 6). Lane 7, linear pUC8 DNA marker. Double-strand DNA breakage was determined by converting relaxed (REL) or supercoiled (SC) pRYG DNA to the linear (LIN) form.
# A linearisation assay was employed to determine if dehydroequol is a topo II poison. Double-strand breakage results in the appearance of linear DNA. […] This effect, which was evident at 10 μg/ml, peaked at 30 μg/ml.
# Topo II poisons enhance topo II-mediated DNA cleavage and can be identified with the linearisation assay under the reaction conditions provided by the supplier of the enzyme (Topogen, Inc.). Briefly, 20-μl reaction mixtures contained 30 mM Tris-HCl, pH 7.6, 3 mM ATP, 15 mM β-mercaptoethanol, 8 mM MgCl2, 60 mM NaCl, 1 μl of the test agent (or solvent), 0.3 μg of pRYG, and 10 units of human topo II (added last). After a 15-min incubation at 37° C., SDS-proteinase K was added, and following a 15 min incubation at 37° C., samples were extracted with CHCl3-isopropanol and electrophoresis was performed on a 1% agarose gel containing ethidium bromide. Gels were photographed, and photographic negatives were scanned.
# human topo I [1] = biological target: T2, human topo I (Homo sapiens, UniProt P11387); assay: Topo I-mediated plasmid relaxation assay; details: 10 μg/ml
# T2 construct: purchased Topogen (Columbus, Ohio)
# T2 sequence (P11387 1-765): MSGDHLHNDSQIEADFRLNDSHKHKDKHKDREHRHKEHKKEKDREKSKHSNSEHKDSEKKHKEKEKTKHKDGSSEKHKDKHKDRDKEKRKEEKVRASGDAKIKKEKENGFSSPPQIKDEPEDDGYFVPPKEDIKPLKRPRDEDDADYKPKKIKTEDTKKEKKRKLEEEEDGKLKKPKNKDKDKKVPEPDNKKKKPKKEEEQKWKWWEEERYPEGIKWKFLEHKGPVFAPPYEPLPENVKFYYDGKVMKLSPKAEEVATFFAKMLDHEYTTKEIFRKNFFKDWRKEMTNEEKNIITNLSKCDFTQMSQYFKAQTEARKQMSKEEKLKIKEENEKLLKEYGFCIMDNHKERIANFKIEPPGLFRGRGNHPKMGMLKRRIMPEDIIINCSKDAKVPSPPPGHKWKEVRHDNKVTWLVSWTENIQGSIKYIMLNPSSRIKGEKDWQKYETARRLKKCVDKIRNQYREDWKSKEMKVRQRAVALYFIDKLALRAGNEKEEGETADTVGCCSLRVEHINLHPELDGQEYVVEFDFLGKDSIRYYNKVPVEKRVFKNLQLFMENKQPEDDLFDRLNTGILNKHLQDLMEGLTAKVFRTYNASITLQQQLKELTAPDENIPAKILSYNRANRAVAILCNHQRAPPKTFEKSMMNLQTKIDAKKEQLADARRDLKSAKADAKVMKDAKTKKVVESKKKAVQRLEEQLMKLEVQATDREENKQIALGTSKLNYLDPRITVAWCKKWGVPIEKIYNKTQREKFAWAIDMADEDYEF
# Experimental: Topo I activity was determined by converting supercoiled pUC8 DNA (SC) into its relaxed from (REL).
# For the determination of topoisomerase (topo) I catalytic activity, pUC8 DNA was used as the substrate in a reaction volume of 20 μl containing the following: 10 mM Tris-HCl, pH 7.9, 1 mM EDTA, 150 mM NaCl, 0.1% BSA, 0.1 mM spermidine, 5% glycerol, and 2 units of purified human topo I. The inhibitor, when applicable, was added as indicated, and the reaction was initiated by the addition of the enzyme. Reactions were carried out at 37° C. for 30 min. Gel electrophoresis was performed at 4 V/cm for 5 h in Tris-borate-EDTA buffer. For the quantitative determination of topo I activity, photographic negatives were scanned. The area representing supercoiled DNA, migrating as a single band at the bottom of the gel, was determined. The concentrations of the inhibitor that prevented 50% of the supercoiled DNA from being converted into relaxed DNA (IC50 values) were determined by averaging the data from at least three experiments.
# human topo I [2] = biological target: T2, human topo I; assay: Topo I-mediated plasmid-nicking assay; details: 10 and 100 μg/ml (FIG. 4 lanes 5 and 6)
# Experimental: Single-strand DNA breakage was determined by converting relaxed (REL) or supercoiled (SC) pUC8 DNA to the nicked form (NIC).
# Under the electrophoretic conditions that were used in the experiment shown in FIG. 4, covalently closed circular (supercoiled or relaxed) plasmid DNA migrates on the bottom of the gel. In the presence of a topo I poison that stabilises the cleavable complex, and following denaturation and degradation of the enzyme with proteinase K/SDS, the resulting nicked DNA migrates on the top of the gel.
# Topo I poisons enhance topo I-mediated pUC8 DNA cleavage under the reaction conditions provided by the supplier of the enzyme (Topogen, Inc.). Briefly, 20 μl of reaction mixtures contained 10 mM Tris-HCl, pH 7.5, 1 mM EDTA, 100 mM NaCl, 1 μl of the test agent (or solvent), 0.5 μg of pUC8, and 10 units of human topo I (added last). After a 30-min incubation at 37° C., SDS-proteinase K was added, and, following a 30-min incubation at 37° C., samples were extracted with CHCl3-isopropanol and electrophoresed on a 1% agarose gel containing 0.5 μg/ml ethidium bromide. Gels were photographed, and photographic negatives were scanned.
# T1 sequence (P11388 whole entry): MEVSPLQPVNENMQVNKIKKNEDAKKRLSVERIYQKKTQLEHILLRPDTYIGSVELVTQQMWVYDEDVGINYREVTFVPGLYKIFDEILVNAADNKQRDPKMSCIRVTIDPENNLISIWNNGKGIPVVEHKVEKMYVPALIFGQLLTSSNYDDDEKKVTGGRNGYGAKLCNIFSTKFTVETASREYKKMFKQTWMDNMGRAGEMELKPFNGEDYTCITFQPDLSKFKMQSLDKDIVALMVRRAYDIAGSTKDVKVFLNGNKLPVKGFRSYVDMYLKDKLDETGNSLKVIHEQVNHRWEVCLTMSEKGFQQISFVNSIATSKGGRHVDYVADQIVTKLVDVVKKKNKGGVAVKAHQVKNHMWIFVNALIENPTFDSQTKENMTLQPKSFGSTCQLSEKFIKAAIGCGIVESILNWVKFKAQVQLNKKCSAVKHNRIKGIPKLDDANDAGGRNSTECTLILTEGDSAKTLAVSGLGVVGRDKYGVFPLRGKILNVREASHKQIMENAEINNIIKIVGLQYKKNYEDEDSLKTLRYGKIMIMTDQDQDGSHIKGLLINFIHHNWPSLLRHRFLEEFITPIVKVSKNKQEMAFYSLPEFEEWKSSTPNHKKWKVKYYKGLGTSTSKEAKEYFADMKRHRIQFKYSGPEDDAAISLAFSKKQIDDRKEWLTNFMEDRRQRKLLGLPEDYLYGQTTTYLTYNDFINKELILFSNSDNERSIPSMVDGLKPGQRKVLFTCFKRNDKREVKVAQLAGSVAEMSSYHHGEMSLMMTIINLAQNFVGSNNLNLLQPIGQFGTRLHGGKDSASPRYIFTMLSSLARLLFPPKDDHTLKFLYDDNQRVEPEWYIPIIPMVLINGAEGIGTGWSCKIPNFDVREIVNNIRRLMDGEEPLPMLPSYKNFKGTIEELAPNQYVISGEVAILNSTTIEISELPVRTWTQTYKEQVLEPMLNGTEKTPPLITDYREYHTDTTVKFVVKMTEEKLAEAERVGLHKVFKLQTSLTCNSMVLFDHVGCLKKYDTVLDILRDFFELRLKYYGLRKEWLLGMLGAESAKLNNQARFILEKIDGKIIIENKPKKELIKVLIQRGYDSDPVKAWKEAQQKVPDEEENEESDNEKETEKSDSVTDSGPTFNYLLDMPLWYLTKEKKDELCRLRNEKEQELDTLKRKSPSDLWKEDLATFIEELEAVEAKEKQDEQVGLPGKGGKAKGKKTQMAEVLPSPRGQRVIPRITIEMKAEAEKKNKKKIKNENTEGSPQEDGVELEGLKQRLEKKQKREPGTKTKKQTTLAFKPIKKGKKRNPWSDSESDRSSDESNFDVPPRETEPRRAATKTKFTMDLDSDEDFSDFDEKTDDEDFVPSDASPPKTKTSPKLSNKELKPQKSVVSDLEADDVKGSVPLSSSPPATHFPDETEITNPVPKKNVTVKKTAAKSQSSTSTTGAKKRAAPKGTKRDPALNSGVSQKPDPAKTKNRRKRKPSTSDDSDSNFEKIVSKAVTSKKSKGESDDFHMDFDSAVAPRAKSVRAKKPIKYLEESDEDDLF
Compound,concentration producing detectable (comparable) topo II-mediated linear plasmid DNA (human topo II) [µg/mL],inhibition of topo I-catalysed relaxation of pUC8 DNA (positive control) (human topo I [1]),"topo I-mediated single-strand DNA breakage (nicked DNA), positive control (human topo I [2])"
"O=c1c(-c2ccc(O)cc2)coc2cc(O)cc(O)c12 [genistein, reference compound]",30,–,–
"CC[C@@]1(O)C(=O)OCc2c1cc1n(c2=O)Cc2cc3ccccc3nc2-1 [Camptothecin, reference compound]",–,prevents pUC8 DNA relaxation,produced single-strand DNA cleavage
